Assay results as given in patent publication US20220031684A1, “PROPHYLACTIC EFFICACY OF SEROTONIN 4 RECEPTOR AGONISTS AGAINST STRESS” (THE TRUSTEES OF COLUMBIA UNIVERSITY IN THE CITY OF NEW YORK, priority 2019, published 2022).
Counter-ions that a name gives are not always drawn.

Key:
[1] = Chronic corticosterone (CORT) model: body weight; assay type: in vivo, mice; details: male C57BL/6NTac; Flx 18 mg/kg/day in drinking water or RS-67,333 1.5 mg/kg/day in osmotic minipumps for 3 weeks prior to CORT
Protocol: This chronic CORT elevation dysregulates the hypothalamic-pituitary-adrenal axis (HPA) in a manner similar to that observed in clinical depression. The dose and duration of CORT treatment was selected based on previous studies. CORT (35 μg/ml, equivalent to about 5 mg/kg/day) dissolved in 0.45% hydroxypropyl-o-cyclodextrin (0-CD) or vehicle (VEH) (0.45% j-CD) was available ad libitum in the drinking water in opaque bottles to protect it from light. VEH- and CORT-treated water was changed every 3 days to prevent possible degradation. Contextual Fear Conditioning (CFC): A 3-shock CFC procedure was administered as previously published. Briefly, mice were placed into context A and administered 3 2-s shocks (0.75 mA) at 180 s, 240 s or 300 s following placement into context A. Mice were removed from the context 15 s following the termination of shock (at 317 s). For context retrieval, mice were placed back into context A for 300 s. Electrophysiology: Electrophysiology was conducted as previously described. Statistical Analysis: Results from data analyses are expressed as means±SEM. Alpha was set to 0.05 for all analyses. Data were analyzed using GraphPad Prism v7.0 or v8.0. For all experiments, unless otherwise noted, one- or two-way ANOVAs with repeated-measures were applied to the data as appropriate. […] Videos were scored using ANY-maze behavior tracking software (Stoelting, Wood Dale, Ill.). […]

C57BL/6NTac mice = test: Elevated plus maze (EPM) in CORT model; assay type: in vivo; details: male C57BL/6NTac, Flx 18 mg/kg/day or RS-67,333 1.5 mg/kg/day for 3 weeks prior to CORT
Protocol: This chronic CORT elevation dysregulates the hypothalamic-pituitary-adrenal axis (HPA) in a manner similar to that observed in clinical depression. The dose and duration of CORT treatment was selected based on previous studies. CORT (35 μg/ml, equivalent to about 5 mg/kg/day) dissolved in 0.45% hydroxypropyl-o-cyclodextrin (0-CD) or vehicle (VEH) (0.45% j-CD) was available ad libitum in the drinking water in opaque bottles to protect it from light. VEH- and CORT-treated water was changed every 3 days to prevent possible degradation. Contextual Fear Conditioning (CFC): A 3-shock CFC procedure was administered as previously published. Briefly, mice were placed into context A and administered 3 2-s shocks (0.75 mA) at 180 s, 240 s or 300 s following placement into context A. Mice were removed from the context 15 s following the termination of shock (at 317 s). For context retrieval, mice were placed back into context A for 300 s. Electrophysiology: Electrophysiology was conducted as previously described. Statistical Analysis: Results from data analyses are expressed as means±SEM. Alpha was set to 0.05 for all analyses. Data were analyzed using GraphPad Prism v7.0 or v8.0. For all experiments, unless otherwise noted, one- or two-way ANOVAs with repeated-measures were applied to the data as appropriate. Significant main effects and/or interactions were followed by Fisher's PLSD post hoc analysis or unpaired t-tests. Drugs: All drugs were prepared in physiological saline and all injections were administered intraperitoneally (i.p.) in volumes of 0.1 cc per […] body weight unless otherwise noted. Fluoxetine hydrochloride (Flx): Flx (BioTrend Chemicals AG, BG197, Zurich, Germany) was administered in the drinking water (18 mg/kg/day) for 3 weeks before the start of CORT. […] (R,S)-ketamine (K): (R,S)-ketamine (Ketaset III, Ketamine HCl injection, Fort Dodge Animal Health, Fort Dodge, Iowa) was administered in a single dose at 30 mg/kg of body weight 1 week before the start of CFC. […] PF-04995274: PF-04995274 (Sigma, Catalog No. 1331782-27-4, St. Louis, Mo.) was administered a single dose at 3 or 10 mg/kg of body weight 1 week before the start of CFC. PF-04995274 was dissolved in saline using an ultrasonic homogenizer (BioLogics, Model 3000, Manassas, Va.). Osmotic minipump implantation: ALZET osmotic minipumps (Model 2004, […], 28 days) were implanted subcutaneously under isoflurane anesthesia as previously described [S2]. Osmotic minipumps were rotated under the skin two to three times per week. Behavioral Assays: All experiments were approved by the Institutional Animal Care and Use Committee (IACUC) at the New York Psychiatric Institute (NYSPI). […] Videos were scored using ANY-maze behavior tracking software (Stoelting, Wood Dale, Ill.). […]

BALB/cJRj mice [2] = test: Elevated plus maze (EPM), acute anxiolytic-like effect; assay type: in vivo; details: acute systemic administration; fluoxetine 18 mg/kg i.p.
Protocol: (§1) RS67333 (1.5 mg/kg, i.p.), diazepam (1.5 mg/kg, i.p.), fluoxetine (18 mg/kg, i.p.) were injected 45 min before testing in the Elevated Plus Maze (EPM), the Novelty Suppressed Feeding (NSF) or the Open Field (OF) in three independent cohorts of male BALB/cJRj mice.
(§2) To ensure the selectivity of the anxiolytic-like effects of RS67333, in a new cohort of male BALB/cJRj mice, GR125487 (1.0 mg/kg, i.p.) dissolved in 0.9% NaCl solution, was injected 15 minutes before RS67333 administration (1.5 mg/kg, i.p.). EPM or NSF occurred 45 min after RS67333 administration (A-S1). Behavioral consequences of the co-administration of GR125487+RS67333 were compared to RS67333 alone, diazepam (1.5 mg/kg, i.p.) fluoxetine (18 mg/kg, i.p.) and vehicle groups (0.9% saline solution, i.p.).
(§3) For mPFC drug infusion, two bilateral cannulae (75 μm-diameter silica capillary tubing inserted in 27G stainless steel catheter) were implanted in the mPFC [stereotaxic coordinates in mm from bregma: A=+2.10, L=±0.50, V=−2.60, A, anterior; L, lateral; and V, ventral, according to (A-S10)] under anesthesia (chloral hydrate, 400 mg/kg, i.p.). […] Diazepam (1.5 mg/kg) was used as a positive control.
In a new cohort of male BALB/cJRj mice, p-CPA was administered twice daily (at 0900 and 1700 h) for 3 consecutive days. RS67333 ([…]) and diazepam ([…]) were then intra-mPFC administered 24 h after the final p-CPA administration and behavioral test (EPM) occurred 45 minutes after local infusion.
The EPM is a widely used behavioral assay for rodents and it has been validated to assess the anti-anxiety effects of pharmacological agents (A-S11). This test was performed as described by (A-S1). The maze is a plus-cross-shaped apparatus, with two open arms and two arms closed by walls linked by a central platform 50 cm above the floor. Mice were individually put in the center of the maze facing an open arm and were allowed to explore the maze during 5 min for the behavioral consequences of an acute systemic administration or mPFC infusion and during 6 min for the optogenetic experiments. The time spent in and the numbers of entries into the open arms were used as an anxiety index. All parameters were measured using a videotracker (EPM3C, Bioseb, Vitrolles, France).

BALB/cJRj mice [3] = test: Novelty suppressed feeding (NSF), acute anxiolytic-like effect; assay type: in vivo; details: male BALB/cJRj; i.p. 45 min before testing; RS67333 1.5, diazepam 1.5, fluoxetine 18 mg/kg
Protocol: as §1, §2, §3
The NSF is a conflict test that elicits competing motivations: the drive to eat and the fear of venturing into the center of a brightly lit arena. The latency to begin eating is used as an index of anxiety/depression-like behavior, because classical anxiolytic drugs as well as chronic antidepressants decrease this measure. The NSF test was carried out during a 10 min period as previously described (A-S12). Briefly, the testing apparatus consisted of a plastic box (50×50×20 cm), the floor of which was covered with approximately 2 cm of wooden bedding. Twenty-four hours prior to behavioral testing, all food was removed from the home cage. At the time of testing, a single pellet of food (regular chow) was placed on a white paper platform positioned in the center of the box. Each animal was placed in a corner of the box, and a stopwatch was immediately started. The latency to eat (defined as the mouse sitting on its haunches and biting the pellet with the use of forepaws) was timed. Immediately afterwards, the animal was transferred to its home cage, and the amount of food consumed by the mouse in the subsequent 5 min was measured, serving as a control for change in appetite as a possible confounding factor.

## CNCCC(Oc1ccc(C(F)(F)F)cc1)c1ccccc1 (centres unmarked) [fluoxetine, Fluoxetine hydrochloride]
[1]
  CORT-induced increase in body weight: attenuated
C57BL/6NTac mice
  time spent in the open arms of the EPM vs VEH+Veh: did not alter
C57BL/6NTac mice; listed as Flx, hydrochloride
  entries into the open arms of the EPM vs CORT+Veh: significantly more entries
BALB/cJRj mice [2]
  anxiety-like behavior: did not affect anxiety-like behavior
BALB/cJRj mice [3]
  latency to feed (NSF) vs vehicle: anxiogenic-like effect
